Measurements published in paper PMC6325200, “Effects of Microplate Type and Broth Additives on Microdilution MIC Susceptibility Assays” (Antimicrobial Agents and Chemotherapy, 2018).
Values after ≈ are worked out from the molar mass of the structure shown.

What was measured:
E. coli ATCC 25922 = assay: microbe, parasite or virus in culture; settings: Escherichia coli, n = 2
How it was run: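 Broth microdilution with 2-fold serial compound dilutions in MH broth, using cultures diluted 40-fold and grown at 37°C for 2 to 3 h, with or without Tween. Variants included 2% beractant added to mid-log cultures, or 50% human serum in MHB.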

E. coli = settings: literature value; cited from earlier work
MRSA = settings: literature value; cited from earlier work
Excerpt: TABLE 1 Literature MIC values for tested antibiotics | column: MIC (µg/ml) (reference[s]) / MRSA

E. faecalis ATCC 29212 = assay: microbe, parasite or virus in culture; settings: Enterococcus faecalis, n = 2
How it was run: (§1)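 Every plate included two controls, one row of bacteria alone and one of medium only. Test agents and standard antibiotics underwent twofold dilution series in 96-well format, and cultures were diluted 40-fold into MH broth in the presence or absence of Tween before 2–3 h at 37°C.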

[1] = system: S. pneumoniae ATCC 700677 (MDR); assay: microbe, parasite or virus in culture; settings: Streptococcus pneumoniae, ATCC700677
How it was run: as §1

[2] = system: S. aureus GISA NRS 2; ATCC 700698; assay: microbe, parasite or virus in culture; settings: Staphylococcus aureus, n = 2
How it was run: as §1

P. aeruginosa ATCC 10145 = assay: microbe, parasite or virus in culture; settings: Pseudomonas aeruginosa, n = 2
How it was run: as §1

S. pneumoniae ATCC 33440 = assay: microbe, parasite or virus in culture; settings: Streptococcus pneumoniae, n = 2
How it was run: as §1

[3] = system: MSSA S. aureus ATCC 25923; assay: microbe, parasite or virus in culture; settings: Staphylococcus aureus, n = 2
How it was run: as §1

Structure (SMILES): O=C(O)c1cn(C2CC2)c2cc(N3CCNCC3)c(F)cc2c1=O [Ciprofloxacin, ciprofloxacin]
- MIC (E. coli ATCC 25922; ATCC25922, 24 h, Corning NBS, MH + 2% LHB, 2% LS): 0.03 to 0.06 µg/mL
- MIC (E. coli ATCC 25922; ATCC25922, 24 h, Corning NBS, MH + 2% LHB, 50% HS): ≤ 0.03 µg/mL
- MIC (E. coli ATCC 25922; ATCC25922, 24 h, Corning NBS, MH + 2% LHB, no additive): ≤ 0.03 µg/mL
- MIC (E. coli ATCC 25922; ATCC25922, 24 h, Corning NBS, MH + T80, 2% LS): ≤ 0.03 µg/mL
- MIC (E. coli ATCC 25922; ATCC25922, 24 h, Corning NBS, MH + T80, 50% HS): ≤ 0.03 µg/mL
- MIC (E. coli ATCC 25922; ATCC25922, 24 h, Corning PS, MH + 2% LHB, 2% LS): ≤ 0.03 µg/mL
- MIC (E. coli ATCC 25922; ATCC25922, 24 h, Corning PS, MH + 2% LHB, 50% HS): ≤ 0.03 µg/mL
- MIC (E. coli ATCC 25922; ATCC25922, 24 h, Corning PS, MH + 2% LHB, no additive): ≤ 0.03 µg/mL
- MIC (E. coli ATCC 25922; ATCC25922, 24 h, Corning PS, MH + T80, 2% LS): ≤ 0.03 µg/mL
- MIC (E. coli ATCC 25922; ATCC25922, 24 h, Corning PS, MH + T80, 50% HS): ≤ 0.03 µg/mL
- MIC (E. coli ATCC 25922; ATCC25922, 24 h, Corning TC, MH + 2% LHB, 2% LS): ≤ 0.03 µg/mL
- MIC (E. coli ATCC 25922; ATCC25922, 24 h, Corning TC, MH + 2% LHB, 50% HS): ≤ 0.03 µg/mL
- MIC (E. coli ATCC 25922; ATCC25922, 24 h, Corning TC, MH + 2% LHB, no additive): ≤ 0.03 µg/mL
- MIC (E. coli ATCC 25922; ATCC25922, 24 h, Corning TC, MH + T80, 2% LS): ≤ 0.03 µg/mL
- MIC (E. coli ATCC 25922; ATCC25922, 24 h, Corning TC, MH + T80, 50% HS): ≤ 0.03 µg/mL
- MIC (E. coli ATCC 25922; ATCC25922, 24 h, Trek PS, MH + 2% LHB, 2% LS): ≤ 0.03 µg/mL
- MIC (E. coli ATCC 25922; ATCC25922, 24 h, Trek PS, MH + 2% LHB, 50% HS): ≤ 0.03 µg/mL
- MIC (E. coli ATCC 25922; ATCC25922, 24 h, Trek PS, MH + 2% LHB, no additive): 0.03 to 0.06 µg/mL
- MIC (E. coli ATCC 25922; ATCC25922, 24 h, Trek PS, MH + T80, 2% LS): ≤ 0.03 µg/mL
- MIC (E. coli ATCC 25922; ATCC25922, 24 h, Trek PS, MH + T80, 50% HS): ≤ 0.03 µg/mL
- MIC (E. coli ATCC 25922; ATCC25922, Corning NBS plate, MHB +0.002% T80, no further additive): ≤ 0.03 µg/mL
- MIC (E. coli ATCC 25922; ATCC25922, Corning NBS plate, MHB −T80, no additive): ≤ 0.03 µg/mL
- MIC (E. coli ATCC 25922; ATCC25922, Corning NBS, MH, 2% LS): ≤ 0.03 µg/mL
- MIC (E. coli ATCC 25922; ATCC25922, Corning NBS, MH, 50% HS): ≤ 0.03 µg/mL
- MIC (E. coli ATCC 25922; ATCC25922, Corning PS plate, MHB +0.002% T80, no further additive): ≤ 0.03 µg/mL
- MIC (E. coli ATCC 25922; ATCC25922, Corning PS plate, MHB −T80, no additive): ≤ 0.03 µg/mL
- MIC (E. coli ATCC 25922; ATCC25922, Corning PS, MH, 2% LS): ≤ 0.03 µg/mL
- MIC (E. coli ATCC 25922; ATCC25922, Corning PS, MH, 50% HS): ≤ 0.03 µg/mL
- MIC (E. coli ATCC 25922; ATCC25922, Corning TC plate, MHB +0.002% T80, no further additive): ≤ 0.03 µg/mL
- MIC (E. coli ATCC 25922; ATCC25922, Corning TC plate, MHB −T80, no additive): ≤ 0.03 µg/mL
- MIC (E. coli ATCC 25922; ATCC25922, Corning TC, MH, 2% LS): ≤ 0.03 µg/mL
- MIC (E. coli ATCC 25922; ATCC25922, Corning TC, MH, 50% HS): ≤ 0.03 µg/mL
- MIC (E. coli ATCC 25922; ATCC25922, Nunc PS plate, MHB −T80): ≤ 0.03 µg/mL
- MIC (E. coli ATCC 25922; ATCC25922, Nunc U TC plate, MHB +0.002% T80): ≤ 0.03 µg/mL
- MIC (E. coli ATCC 25922; ATCC25922, Nunc U TC plate, MHB −T80): ≤ 0.03 µg/mL
- MIC (E. coli ATCC 25922; ATCC25922, Nunc flat TC plate, MHB +0.002% T80): ≤ 0.03 µg/mL
- MIC (E. coli ATCC 25922; ATCC25922, Nunc flat TC plate, MHB −T80): ≤ 0.03 µg/mL
- MIC (E. coli ATCC 25922; ATCC25922, Trek PS plate, MHB +0.002% T80, no further additive): ≤ 0.03 µg/mL
- MIC (E. coli ATCC 25922; ATCC25922, Trek PS plate, MHB −T80, no additive): ≤ 0.03 µg/mL
- MIC (E. coli ATCC 25922; ATCC25922, Trek PS, MH, 2% LS): ≤ 0.03 µg/mL
- MIC (E. coli ATCC 25922; ATCC25922, Trek PS, MH, 50% HS): ≤ 0.03 µg/mL
- MIC (literature) (E. coli): 0.03–0.06 ([64], [65]) µg/ml
- MIC (literature) (MRSA): 0.5 ([63]) µg/ml
- MIC (E. faecalis ATCC 29212; ATCC29212, Corning NBS, MHB +T80): 2 µg/mL (≈ 6.04 µM)
- MIC (E. faecalis ATCC 29212; ATCC29212, Corning NBS, MHB -T80): 2 µg/mL (≈ 6.04 µM)
- MIC (E. faecalis ATCC 29212; ATCC29212, Corning TC, MHB +T80): 0.5 to 1 µg/mL (≈ 1.51 to 3.02 µM)
- MIC (E. faecalis ATCC 29212; ATCC29212, Corning TC, MHB -T80): 0.25 µg/mL (≈ 0.754 µM)
- MIC [1]: 0.5 to 1 µg/mL (≈ 1.51 to 3.02 µM)
- MIC ([2]; Corning NBS, MHB +T80): 64 µg/mL (≈ 193 µM)
- MIC ([2]; Corning NBS, MHB -T80): 64 µg/mL (≈ 193 µM)
- MIC ([2]; Corning PS, MHB +T80): 64 µg/mL (≈ 193 µM)
- MIC ([2]; Corning TC, MHB +T80): 64 µg/mL (≈ 193 µM)
- MIC ([2]; Corning TC, MHB -T80): 32 to 64 µg/mL (≈ 96.6 to 193 µM)
- MIC (P. aeruginosa ATCC 10145; ATCC10145, Corning PS, MHB +T80): 0.25 to 0.5 µg/mL (≈ 0.754 to 1.51 µM)
- MIC (P. aeruginosa ATCC 10145; ATCC10145, Corning TC, MHB +T80): 0.25 to 0.5 µg/mL (≈ 0.754 to 1.51 µM)
- MIC (P. aeruginosa ATCC 10145; ATCC10145, Corning TC, MHB -T80): ≤ 0.03 µg/mL
- MIC (S. pneumoniae ATCC 33440; ATCC33440, Corning NBS, MHB +T80): 0.25 to 1 µg/mL (≈ 0.754 to 3.02 µM)
- MIC (S. pneumoniae ATCC 33440; ATCC33440, Corning PS, MHB -T80): 0.25 to 0.5 µg/mL (≈ 0.754 to 1.51 µM)
- MIC (S. pneumoniae ATCC 33440; ATCC33440, Corning TC, MHB +T80): 0.25 to 0.5 µg/mL (≈ 0.754 to 1.51 µM)
- MIC (S. pneumoniae ATCC 33440; ATCC33440, Corning TC, MHB -T80): 0.25 to 0.5 µg/mL (≈ 0.754 to 1.51 µM)
- MIC ([3]; Corning NBS, MHB +T80): 0.5 to 1 µg/mL (≈ 1.51 to 3.02 µM)
- MIC ([3]; Corning PS, MHB +T80): 0.5 µg/mL (≈ 1.51 µM)
- MIC ([3]; Corning PS, MHB -T80): 0.25 to 0.5 µg/mL (≈ 0.754 to 1.51 µM)
- MIC ([3]; Corning TC, MHB +T80): 0.5 to 1 µg/mL (≈ 1.51 to 3.02 µM)
